Test: ability of solvents and dispersion mediums to dissolve the therapeutic substance (sirolimus)
Format: physicochemical
Method: Solution 524 is a homogeneous mixture in which therapeutic substance 112 dissolves within a solvent or a solvent mixture. In one embodiment, solution 524 includes a high-capacity solvent 528 which is an organic solvent that has a high capacity to dissolve therapeutic substance 112. High capacity as utilized herein is defined as an ability to dissolve therapeutic substance 112 at concentrations greater than 500 mg of substance per milliliter of solvent. Examples of high capacity drug dissolving solvents for sirolimus and similar substances include but are not limited to tetrahydrofuran (THF), di-chloromethane (DCM), chloroform, and di-methyl-sulfoxide (DMSO). In addition to the high-capacity solvent, solution 524 may include an excipient 526 in order to assist in drug elution. In one embodiment, excipient 526 may be a surfactant such as but not limited to sorbitan fatty acid esters such as sorbitan monooleate and sorbitan monolaurate, polysorbates such as polysorbate 20, polysorbate 60, and polysorbate 80, cyclodextrins such as 2-hydroxypropyl-beta-cyclodextrin and 2,6-di-O-methyl-beta-cyclodextrin, sodium dodecyl sulfate, octyl glucoside, and low molecular weight poly(ethylene glycol)s. In another embodiment, excipient 526 may be a hydrophilic agent such as but not limited to salts such as sodium chloride and other materials such as urea, citric acid, and ascorbic acid. […]

solubility in hexane (hexane (precipitator solvent)): insoluble | solubility in water (water): insoluble
Structure (SMILES): CO[C@H]1C[C@@H]2CC[C@@H](C)[C@@](O)(O2)C(=O)C(=O)N2CCCC[C@H]2C(=O)O[C@H]([C@H](C)C[C@@H]2CC[C@@H](O)[C@H](OC)C2)CC(=O)[C@H](C)/C=C(\C)[C@@H](O)[C@@H](OC)C(=O)[C@H](C)C[C@H](C)/C=C/C=C/C=C/1C [sirolimus]

Reference: US8381774B2, “Methods for loading a drug eluting medical device” (Medtronic Vascular, Inc., priority 2009, dated 2013)
